Values of other authors in article PMC11243490, “Enzymatic Fructosylation of Phenolic Compounds: A New Alternative for the Development of Antidiabetic Drugs” (Molecules, 2024).
Values after ≈ are worked out from the molar mass of the structure shown.

Assays:
CYP2C9 = system: CYP2C9; set-up: method as in PMID 27518169; conditions: human liver microsomes
CYP1A2 = system: CYP1A2; set-up: method as in PMID 27518169; conditions: human liver microsomes
[1] = set-up: method as in PMID 30638505, PMID 33992405, doi:10.1016/j.imu.2022.100880; conditions: reported properties
[2] = set-up: method as in PMID 30638505, PMID 33992405, doi:10.1016/j.imu.2022.100880; conditions: reported properties; remark: listed apart in the source
[3] = reported properties
[4] = set-up: method as in PMID 30638505, PMID 33992405, doi:10.1016/j.imu.2022.100880; conditions: reported properties; remark: listed apart in the source
[5] = system: EGFR, SRC, ESR1, and HSP90AA1 diabetic proteins; set-up: method as in PMID 37754241; conditions: range over EGFR
[6] = system: key proteins in type 2 diabetes; set-up: method as in PMID 32258479; conditions: strongest interactions

| Structure (SMILES) | DPPH % Free Radical Scavenging Activity [3] | Solubility [4] | also measured |
| --- | --- | --- | --- |
| O=C(O[C@@H]1Cc2c(O)cc(O)cc2O[C@@H]1c1cc(O)c(O)c(O)c1)c1cc(O)c(O)c(O)c1 [EGCG, epigallocatechin gallate] | – | – | inhibition of CYP2C9 (CYP2C9): 7.60 µM; inhibition of CYP1A2 (CYP1A2): 8.93 µM |
| COc1cc(C=CC(=O)O)ccc1O [FA, 4-hydroxy-3-methoxycinnamic acid] | 70.04 ± 2.3% | – | ABTS % Free Radical Scavenging Activity [1]: 90.69 ± 0.14%; NO % Free Radical Scavenging Activity [2]: 22.21 ± 1.39% |
| COc1cc(/C=C/C(=O)OC2(CO)OCC(O)C(O)C2O)ccc1O [MFF, β-D-Fructopyranosyl-β-(2→6)-ferulate] | 17.16 ± 0.81% | 8690 ± 450 µg/mL (≈ 24.4 mM) | ABTS % Free Radical Scavenging Activity [1]: 90.95 ± 0.18%; NO % Free Radical Scavenging Activity [2]: 3.27 ± 1.02% |
| O=c1c(-c2ccc(O)cc2)coc2c(C3OC(COC4(CO)OC(CO)C(O)C4O)C(O)C(O)C3O)c(O)ccc12 [MFP, β-D-fructofuranosyl-β-(2→6)-puerarin] | 26.2 ± 1.3% | 16200 ± 1700 µg/mL (≈ 28 mM) | – |
| O=C(CCc1ccc(O)cc1)c1c(O)cc(O)cc1OC1OC(COC2(CO)OC(CO)C(O)C2O)C(O)C(O)C1O [MFPh, β-D-fructofuranosyl-β-(2→6)-phlorizin] | 44.56 ± 8.4% | 30570 ± 100 µg/mL (≈ 51.1 mM) | – |
| O=C(CCc1ccc(O)cc1)c1c(O)cc(O)cc1O[C@@H]1O[C@H](CO)[C@@H](O)[C@H](O)[C@H]1O [PH, phloretin-2′-β-D-glucopyranoside] | 62.13 ± 1.8% | 1930 ± 30 µg/mL (≈ 4.42 mM) | – |
| O=c1c(-c2ccc(O)cc2)coc2c([C@@H]3O[C@H](CO)[C@@H](O)[C@H](O)[C@H]3O)c(O)ccc12 [PU, daidzein-8-C-glucoside] | 33.3% | 700 ± 90 µg/mL (≈ 1.68 mM) | – |
| CCCCCc1cc(O)c2c(c1)OC(C)(C)c1ccc(C)cc1-2 [cannabinol] | – | – | free binding energy [5]: -7.44 to -6.38 kcal/mol |
| OC[C@H]1O[C@@H](Oc2cc3c(O)cc(O)cc3[o+]c2-c2ccc(O)c(O)c2)[C@H](O)[C@@H](O)[C@@H]1O [cyanidin 3-glucoside] | – | – | free binding energies [6]: −7.3 to −6.10 |
| OC[C@H]1O[C@@H](Oc2cc3c(O)cc(O)cc3[o+]c2-c2cc(O)c(O)c(O)c2)[C@H](O)[C@@H](O)[C@@H]1O [delphinidin 3-glucoside] | – | – | free binding energies [6]: −7.3 to −6.10 |
